“Also recorded” adds a separate entry of the source.
How the values were obtained:
UUO kidney [1] = experiment: Dynamic MRI measurement of the enhancement in the kidney, UUO mice (Example 3); assay type: in vivo; conditions: DOTAREM 10 mM, Example 1 nanoparticles 5 mM
Experimental: The images were acquired with a 7T 300 MHz spectrometer imager, equipped with a linear 1H radiofrequency coil dedicated to mice (Bruker, Karlsruhe, Germany).
The dynamic MRI studies of capture and release of the nanoparticles in the tissues were carried out in vivo and made it possible to determine the change in enhancement in the kidney.
All the manipulations of the animals were carried out in compliance with the institutional animal protocol guidelines in place at Paris Descartes University, submission CEEA34.JS.142.1 and approved by the Institute's animal research committee, and also the ethics protocols of the company regarding mouse inductions. […]
8-week-old female mice of BalbC/JRJ type (n=6) were UUO-treated at just one kidney, i.e. each mouse comprises one lesioned kidney (UUO kidney) and one healthy kidney (reference kidney). […] The physiological respiratory parameters were measured throughout the MRI studies using a nonmagnetic respiratory sensor system (the company SAM, US) and the body temperature was maintained by heating the cradle to the core. […]
A dynamic contrast enhanced DCE sequence was recorded using a specific sequence eliminating the free artefacts of movement in post treatment with a TR of 100 ms and a TE of 4 ms and a tilt angle of 80° in order to ensure T1 MRI weighting; a field of view (FOV) of 3 cm×3 cm and a final matrix of 256 by 256 points. […]

UUO kidney [2] = experiment: High temporal resolution DCE perfusion MRI, UUO model (Example 4); assay type: in vivo, female BalbC/JRJ mice; conditions: DOTAREM 10 mM
Experimental: It provides kinetic profiles of signal enhancement corresponding to the immediate arrival of the imaging agent in the tissue, in particular for probing the first glomerular pass.
The UUO model is induced by clamping the right ureter of female BalbC/JRJ mice according to a biochemically characterized protocol from the literature. All the manipulations of the animals were carried out in compliance with the institutional animal protocol guidelines described in Example 3.
8-week-old female mice of BalbC/JRJ type (n=6) were UUO-treated at the level of just one kidney, i.e. each mouse comprises one lesioned kidney (UUO kidney) and one healthy kidney (reference kidney). A batch of sham mice makes it possible to verify the validity of the contralateral reference with the MRI method developed. 2 batches of n=6 mice and n=6 shams were studied by dynamic MRI 3 days after induction.
The DCE MRI acquisition protocol consists in injecting the two types of imaging agents: reference DOTAREM and AGuIX, namely:
Solution according to the invention: 100 μl of imaging agent dissolved in a 0.9% saline solution, with a 5 mM concentration of AGuIX imaging agent.
Prior art solution: 100 μl of imaging agent dissolved in a 0.9% saline solution with 10 mM concentration of DOTAREM imaging agent. • i) The administration protocol is that of Example 3. • ii) The MRI acquisition protocol itself consists in recording sequential images by means of the T1-weighted FLASH MRI sequence (TR=TE=2.2 ms, spatial resolution 117×310 μm^2), temporal resolution 2.5 s for 10 min with 20 s of precontrast. […] T1 mapping in order to verify the concentration of Gd MRI agent is recorded. • iii) The digital processing method derived from method termed 3TP, three time Points, consists in defining 3 main points: basic reference intensity, point of maximum intensity of enhancement, final clearance time, and calculating the slopes of capture and of release of the agent. Next, a Mann-Whitney biostatistical study is applied to the slope parameters calculated for each of the 6 mice, and for each imaging agent.
Averaged collective method resulting in the value of T1max: • a) Searching for the time T corresponding to the maximum in the overall mean of the DCE MRI intensities. • b) Applying this max to each enhancement profile as Tmax. • c) Taking the mean of 6 enhancement values around the indexed value.

[3] = test system: glomerular and tubular renal disorder model induced by injection of anti-gbm antibodies; experiment: Arterial input function (AIF) by DCE MRI in anti-gbm glomerular and tubular renal disorder model with therapy (Example 6); assay type: in vivo, male CBA mice; conditions: d7 and d14 post-induction, AGuIX 5 mM, DOTAREM 10 mM, 100 μl bolus
Experimental: The high temporal resolution DCE perfusion method with a period 2.5 s for 10 min, with injection of the imaging agent as a 100 μl bolus at […] (method described in Example 4) was applied on another model of glomerular and tubular renal disorder, i.e. model induced by injection of anti-gbm antibodies in the literature.
The DCE MRI acquisition protocol consists in injecting the two types of agents: reference DOTAREM or AGuIX, namely:
solution according to the invention: 100 μl of imaging agent dissolved in a 0.9% saline solution, with a 5 mM concentration of AguIX imaging agent, and
solution according to the prior art: 100 μl of imaging agent dissolved in a 0.9% saline solution, with a 10 mM concentration of DOTAREM imaging agent. […]
An additional parameter corresponding to the arrival of the imaging tracer in the organ, i.e. arterial input function AIF, was also recorded. Measured at the input of the organ studied, the AIF itself at the input of the kidney is an indicator of the functionality. The profile is recorded on the anatomical MRI image at the level of the renal arterial point on the dynamic images acquired at DCE high temporal resolution proposed. […]

In the case of `CNC[C@H](O)[C@@H](O)[C@H](O)[C@H](O)CO.O=C([O-])CN1CCN(CC(=O)[O-])CCN(CC(=O)O)CCN(CC(=O)[O-])CC1.[Gd+3]` [DOTAREM], the “discrimination between healthy kidney and lesioned (UUO) kidney by MRI enhancement” value (UUO kidney [1]; intravenous, 100 μl, UUO mice) is reported as “cannot discriminate between a healthy kidney and a lesioned kidney; also recorded: does not make it possible to significantly differentiate renal functionality of a healthy kidney and of an obstructed kidney; also recorded: does not make it possible to distinguish a healthy kidney from a kidney suffering from a renal disorder”, the “enhancement profile in the renal cortex, UUO kidney vs reference kidney” value (UUO kidney [1]; time course by MRI after intravenous administration) is reported as “enhancement profile is similar between UUO kidney (lesioned kidney) and reference kidney (healthy kidney)” and the “decrease of DCE MRI signal between healthy and pathological kidney condition” value (UUO kidney [2]; UUO model, AGuIX 5 mM) is reported as 100%. The “decrease of DCE MRI signal between healthy and pathological kidney condition, as factor” value (UUO kidney [2]; UUO model, AGuIX 5 mM) was 2, the “discrimination between healthy kidney and lesioned kidney (high time resolution DCE MRI)” value (UUO kidney [2]; intravenous, Example 1 nanoparticles 5 mM) was “cannot discriminate between a healthy kidney and a lesioned kidney” and the “enhancement profile in the renal cortex, UUO kidney vs reference kidney (high time resolution DCE MRI, Mann-Whitney improved 3TP)” value (UUO kidney [2]; intravenous, Example 1 nanoparticles 5 mM, 3 days after induction) was “enhancement profile is similar between UUO kidney (lesioned kidney) and reference kidney (healthy kidney)”. The “AIF at the kidney input, control (carrier) mice vs MP mice” value [3] was “identical”.

— US20190022257A1, “ULTRAFINE NANOPARTICLES AS AN IMAGING AGENT FOR DIAGNOSING A RENAL DISORDER” (priority 2016, published 2019)
